Measurements published in ChEMBL document CHEMBL1141004, “N-((8-hydroxy-5-substituted-quinolin-7-yl)(phenyl)methyl)-2-phenyloxy/amino-acetamide inhibitors of ADAMTS-5 (Aggrecanase-2)” (Bioorg Med Chem Lett, 2008).
pIC50: −log10 of the molar value.

Experiments:
Cytochrome P450 3A4 = Cytochrome P450 3A4 (Homo sapiens, UniProt P08684); experiment: Inhibition of CYP3A4 at 30 uM by FRET assay; format: ADME
[1] = Metabolic stability in rat liver microsomes assessed as half life; format: ADME, Microsome
[2] = target: T1, A disintegrin and metalloproteinase with thrombospondin motifs 5 (Homo sapiens, UniProt Q9UNA0); experiment: Inhibition of ADAMTS5 by FRET assay
T1 sequence (Q9UNA0 whole entry): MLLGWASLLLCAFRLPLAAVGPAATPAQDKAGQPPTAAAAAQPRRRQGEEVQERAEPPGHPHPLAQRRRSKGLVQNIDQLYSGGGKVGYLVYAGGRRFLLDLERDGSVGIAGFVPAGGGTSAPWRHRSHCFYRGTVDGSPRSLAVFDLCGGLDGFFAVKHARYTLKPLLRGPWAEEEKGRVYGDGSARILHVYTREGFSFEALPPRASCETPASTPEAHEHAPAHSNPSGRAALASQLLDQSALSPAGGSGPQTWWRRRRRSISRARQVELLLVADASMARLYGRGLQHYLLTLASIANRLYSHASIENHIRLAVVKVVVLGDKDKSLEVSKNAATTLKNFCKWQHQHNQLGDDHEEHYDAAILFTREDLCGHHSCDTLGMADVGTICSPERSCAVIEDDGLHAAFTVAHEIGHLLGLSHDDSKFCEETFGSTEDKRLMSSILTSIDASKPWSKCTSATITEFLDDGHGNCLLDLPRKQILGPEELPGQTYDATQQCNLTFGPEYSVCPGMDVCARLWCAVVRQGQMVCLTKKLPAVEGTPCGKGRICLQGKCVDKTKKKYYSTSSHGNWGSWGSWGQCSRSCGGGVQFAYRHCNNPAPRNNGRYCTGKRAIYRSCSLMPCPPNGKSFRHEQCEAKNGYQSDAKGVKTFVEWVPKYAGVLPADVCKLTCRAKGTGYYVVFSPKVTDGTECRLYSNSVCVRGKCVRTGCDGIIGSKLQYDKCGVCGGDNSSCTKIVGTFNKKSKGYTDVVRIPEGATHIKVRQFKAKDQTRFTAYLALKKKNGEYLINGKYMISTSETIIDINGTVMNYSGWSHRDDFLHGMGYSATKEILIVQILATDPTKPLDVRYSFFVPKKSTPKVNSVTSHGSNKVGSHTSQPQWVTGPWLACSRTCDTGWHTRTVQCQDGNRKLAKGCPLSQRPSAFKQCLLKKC

Sequence of Cytochrome P450 3A4 (P08684 whole entry): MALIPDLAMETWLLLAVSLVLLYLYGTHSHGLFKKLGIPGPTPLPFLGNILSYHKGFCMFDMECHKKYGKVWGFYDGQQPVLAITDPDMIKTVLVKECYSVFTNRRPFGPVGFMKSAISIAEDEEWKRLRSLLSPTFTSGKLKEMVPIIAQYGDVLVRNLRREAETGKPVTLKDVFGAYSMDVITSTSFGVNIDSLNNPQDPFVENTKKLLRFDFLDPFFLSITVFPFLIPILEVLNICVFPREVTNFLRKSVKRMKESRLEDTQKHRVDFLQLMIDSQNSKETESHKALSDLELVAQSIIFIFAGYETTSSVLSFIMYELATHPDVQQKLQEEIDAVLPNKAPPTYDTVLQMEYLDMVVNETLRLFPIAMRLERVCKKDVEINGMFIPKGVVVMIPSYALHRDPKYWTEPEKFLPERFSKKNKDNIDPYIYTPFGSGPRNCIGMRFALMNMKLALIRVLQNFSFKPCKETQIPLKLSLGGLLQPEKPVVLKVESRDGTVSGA

Row | inhibition (INH) (Cytochrome P450 3A4) | half-life [1] | pIC50 [2] | SMILES
1 | 19% | 30 min | < 5.00 | Cc1cc(OCC(=O)NC(c2cccc([N+](=O)[O-])c2)c2cc(Cl)c3cccnc3c2O)ccc1Cl (stereo unspecified)
2 | 25% | 9 min | < 5.00 | COc1ccc(C(NC(=O)COc2ccc(Cl)c(C)c2)c2cc(Cl)c3cccnc3c2O)cc1 (stereo unspecified)
